One compound from US20160280651A1, “COMPOUNDS THAT INDUCE ABA RESPONSES” (THE REGENTS OF THE UNIVERSITY OF CALIFORNIA, priority 2013, published 2016) can be followed below.

One assay has as its system GmNAC4 and GmbZIP1. The assay can be described thus: Quantitative RT-PCR of ABA-responsive genes in soybean. It is filed as in vivo. An excerpt: (§1) FIG. 13A-FIG. 13E. LC66C6 modulates ABA responses in diverse species. Germination inhibition (A) and transpirational water loss in detached leaves 2-hours after detachment (B) in response to compounds shown. The expression of ABA-responsive marker genes in Soybean (C), Barley (D) and Maize (E) after application of chemicals. D, P, L and A indicate DMSO, pyrabactin, LC66C6 and (+)-ABA, respectively.
(§2) Total RNA was isolated using Plant RNA purification reagent (Invitrogen, USA) according to the manufacturer's instructions. cDNA was synthesized from 1 μg of total RNA using the QantiTec reverse transcription kit (Qiagen, USA). Real-time PCR using Maxima® SYBR Green/Fluorescein qPCR Master Mix (Fermentas) was performed with the iQ5 real-time PCR detection system (Bio-Rad, Hercules, Calif.). The relative amounts of target mRNAs were determined using the relative standard curve method and were normalized by relative amount of internal control mRNA. Biological triplicate experiments were performed.

A further assay deals with HVA1 and HvDRF1. The assay can be described thus: Quantitative RT-PCR of ABA-responsive genes in barley. In kind it is in vivo.
Source text: as §1, §2

Assay [1] relates to ABI2 with PYR/PYL receptors. The assay can be described thus: Receptor-mediated PP2C inhibition assay with ABI2, Example 1. In kind it is biochemical, Arabidopsis. To be noted: 10 μM; receptors PYR1, PYL1, PYL2, PYL3 and PYL5. The protocol: FIG. 2A-FIG. 2C. Novel ABA agonists inhibit PPC2 activity through multiple PYR/PYL. (A) Chemical structure of naturally occurring (+)-ABA and selected ABA agonists. (B) and (C) HAB1, ABU, and ABI2 PP2C enzyme activity based ABA-agonist assays for various receptors in the presence or absence of 10 μM each test chemical.
HAB1 and PYL proteins were expressed and purified as described previously (Park S Y, et al. (2009) Abscisic Acid Inhibits Type 2C Protein Phosphatases via the PYR/PYL Family of START Proteins. Science 324(5930):1068-1071), with minor modifications. To obtain GST-HAB1, -ABI1 and -ABI2 fusion proteins, the HAB1 cDNA was cloned into pGex-2T whereas ABI1 and ABI2 cDNAs were cloned into the vector pGex-4T-1. […] After 16 hours incubation at 15° C., cells were harvested and recombinant proteins were purified on glutathione agarose as described previously (Park S Y, et al. (2009). To obtain 6×His-PYL receptor fusion proteins, receptor cDNAs for all 13 ABA receptors were cloned into the vector pET28 and expressed and purified as described previously (Mosquna A, et al. (2011) Potent and selective activation of abscisic acid receptors in vivo by mutational stabilization of their agonist-bound conformation. PNAS 108(51):20838-20843); this yielded soluble and functional protein (assessed using receptor-mediated PP2C inhibition assays) for all receptors except PYL7, PYL11 and PYL12. […]

`CCCN1C(=O)CCc2cc(NS(=O)(=O)Cc3ccc(C)cc3)ccc21` [LC66C6]: the “Expression of ABA-responsive genes GmNAC4 and GmbZIP1” value with GmNAC4 and GmbZIP1 is reported as “strongly induces”. For the same compound, the “Expression of ABA-responsive genes HVA1 and HvDRF1” value in the assay with HVA1 and HvDRF1 is “moderately induces”. The “PP2C inhibition of ABI2” value in assay [1] is recorded as above 70%.
